Measurements reported in ChEMBL document CHEMBL5113497, “Comparison of ATP-binding pockets and discovery of homologous recombination inhibitors” (Bioorg Med Chem, 2022).
The source made the active and inactive calls. The calls are words filed in the database; no cut-off is given here.

Key:
[1] = organism: Homo sapiens; test: Inhibition of recombinant human RAD51/p53 (unknown origin) interaction at 200 uM measured by ELISA assay
[2] = biological target: T1, DNA repair protein RAD51 homolog 1 (Homo sapiens) (UniProt Q06609); test: Inhibition of RAD51 in human U2OS cells at 20 to 80 uM measured by direct repeats green fluorescent protein (DR-GFP) reporter assay; format: cell-based; details: dose 20-80 µM
T1 sequence (whole entry): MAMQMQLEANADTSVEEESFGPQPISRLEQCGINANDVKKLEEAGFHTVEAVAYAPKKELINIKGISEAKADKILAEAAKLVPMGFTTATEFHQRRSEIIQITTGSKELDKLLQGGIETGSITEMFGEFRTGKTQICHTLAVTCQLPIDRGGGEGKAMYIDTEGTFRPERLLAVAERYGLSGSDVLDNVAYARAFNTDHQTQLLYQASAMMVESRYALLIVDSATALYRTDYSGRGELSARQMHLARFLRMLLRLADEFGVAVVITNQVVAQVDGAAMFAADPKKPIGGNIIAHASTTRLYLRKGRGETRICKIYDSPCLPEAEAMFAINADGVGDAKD

With `Nc1ncnc2c1ncn2[C@@H]1O[C@H](COP(=O)(O)OP(=O)(O)OP(=O)(O)O)[C@@H](O)[C@H]1O` the inhibition [1] was “Active”.
`C[C@@H]1Cc2ccccc2N1C(=O)COc1ccc(N(C)S(=O)(=O)c2ccccc2)cc1` was tested, and the inhibition [1] was “Active” and the inhibition [2] was “Active”.
In the case of `Cc1cc(C)c(CNC(=O)c2cccc(S(=O)(=O)N3C[C@H](C)C[C@@H](C)C3)c2)c(=O)[nH]1`, the inhibition [1] is reported as “Active”.
In the case of `Nc1ncnc2c1ncn2[C@@H]1O[C@H](COP(=O)(O)OP(=O)(O)NP(=O)(O)O)[C@@H](O)[C@H]1O`, the inhibition [1] is reported as “Active”.
In the case of `Cc1c(F)cc(C(N)=O)cc1NC(=O)c1cccc(S(=O)(=O)Nc2ccccc2F)c1`, the inhibition [1] is reported as “Active”.
With `Cc1ccc(-n2nnnc2SCC(=O)Nc2oc(C)c3c(C)n[nH]c(=O)c23)c(C)c1` the inhibition [1] was “Active” and the inhibition [2] was “Active”.
